Structures are written as SMILES.

Data set [1] relates to RAW264.7 cells. As to the kind of experiment: Cytotoxicity test, CCK-8 cell viability of RAW264.7 cells (24 h). As to conditions: 10 μM, RAW264.7 cell viability. In kind it is cell-based, mice. How it is done: RAW264.7 cells were inoculated into a 96-well plate at a density of 1×10^5 per well. When the cell density was 70%-80%, the RAW264.7 cells were pretreated with 10 mM working solutions prepared from 18 balasubramide derivatives at a final concentration of 10 μM for 24 h, and then the cell viability was determined by a CCK-8 method.

In data set [2] the test system is TNF-α in RAW264.7 macrophages stimulated by lipopolysaccharide. As to the kind of experiment: TNF-α ELISA in cell supernatant of LPS-stimulated RAW264.7 macrophages. The format is cell-based, mice. To be noted: Mus musculus, RAW264.7, 2 h, 10 μM, 3 h pretreatment, LPS 100 ng/mL 2 h, RAW264.7; read-out: Percentage of TNF-α in a model group (%). How it is done:
RAW264.7 cells were inoculated into a 96-well plate at a density of 1×10^5 per well. When the cell density was 70%-80%, 18 balasubramide derivatives were prepared into 10 mM working solutions with DMSO, respectively, and then used to pretreat mononuclear macrophages RAW264.7 of mice at a final concentration of 10 μM. After 3 h, lipopolysaccharide (LPS, 100 ng/mL) was added into all wells for action for 2 h except for a control group. A supernatant was collected for later use, and the expression level of an inflammatory factor TNF-α in the cell supernatant was detected according to an operation instruction of a commercial ELISA kit.
RAW264.7 cells were inoculated into a 96-well plate at a density of 1×10^5 per well. When the cell density was 70%-80%, the RAW264.7 cells were pretreated with (+)3C-20 ([…]). After 3 h, lipopolysaccharide (LPS, 100 ng/mL) was added into all wells for action for 2 h except for a control group. The expression level of an inflammatory factor TNF-α in a cell supernatant was detected according to an operation instruction of a commercial ELISA kit, and the cell viability at different administration concentrations of (+)3C-20 was determined according to an operation instruction of a CCK-8 kit.
For orientation: ELISA stands for enzyme-linked immunosorbent assay.

With `C=CCn1c2c(c3ccccc31)CCNC(=O)[C@@H](OC(=O)CCc1ccc(C(F)(F)F)cc1)[C@@H]2c1ccc(C(F)(F)F)cc1` [(+)-c4], in data set [1], the “Percentage of CCK-8 in a model group (%)” value is 110.28 ± 1.56%. In addition, in data set [2], the activity at 10 µM was determined as 96.1 ± 1.48%.

As to `O=C(CCc1ccc(C(F)(F)F)cc1)O[C@@H]1C(=O)NCCc2c([nH]c3ccc(OCc4ccccc4)cc23)[C@H]1c1ccc(C(F)(F)F)cc1` [(+)-B3h], the “Percentage of CCK-8 in a model group (%)” value in data set [1] is on record as 99.75 ± 1.27%. Besides, the activity at 10 µM in data set [2] amounted to 66.1%.

On to `O=C(CCc1ccc(C(F)(F)F)cc1)O[C@@H]1C(=O)NCCc2c([nH]c3ccc(F)cc23)[C@H]1c1ccc(C(F)(F)F)cc1` [(+)-B3d], for which, in data set [1], the “Percentage of CCK-8 in a model group (%)” value stood at 90.33 ± 5.86%. Further, in data set [2], the activity at 10 µM came out at 101 ± 4.46%.

Values taken from US20240300959A1, “BALASUBRAMIDE DERIVATIVE AND USE THEREOF IN PREPARATION OF MEDICINE FOR TREATING ACUTE LUNG INJURY” (Guangdong Pharmaceutical University, priority 2023, published 2024).
